Laboratory results as given in patent publication US8569344B2, “N-piperidinyl acetamide derivatives as calcium channel blockers” (Zalicus Pharmaceuticals Ltd., priority 2008, dated 2013).

What was measured:
[1] = biological target: T1, human α1H T-type channels (Homo sapiens, UniProt O95180); assay: T-type calcium channel block, whole cell patch clamp in HEK cells (α1H); type: cell-based; conditions: HEK cells, patch clamp, mainly non-inactivated protocol; values above 10 μM shown as 10 μM; read-out: T-type Calcium Channel Block α1H IC50
T1 construct: expressed in transfected cells; host or cells: HEK 293

[2] = biological target: T2, human α1G T-type channels (Homo sapiens, UniProt O43497); assay: T-type calcium channel block, whole cell patch clamp in HEK cells (α1G); type: cell-based; conditions: HEK cells, patch clamp, mainly non-inactivated protocol; values above 10 μM shown as 10 μM, below 0.30 μM shown as 0.30 μM; read-out: T-type Calcium Channel Block α1G IC50
T2 construct: expressed in transfected cells; host or cells: HEK 293
T2 sequence (O43497 whole entry): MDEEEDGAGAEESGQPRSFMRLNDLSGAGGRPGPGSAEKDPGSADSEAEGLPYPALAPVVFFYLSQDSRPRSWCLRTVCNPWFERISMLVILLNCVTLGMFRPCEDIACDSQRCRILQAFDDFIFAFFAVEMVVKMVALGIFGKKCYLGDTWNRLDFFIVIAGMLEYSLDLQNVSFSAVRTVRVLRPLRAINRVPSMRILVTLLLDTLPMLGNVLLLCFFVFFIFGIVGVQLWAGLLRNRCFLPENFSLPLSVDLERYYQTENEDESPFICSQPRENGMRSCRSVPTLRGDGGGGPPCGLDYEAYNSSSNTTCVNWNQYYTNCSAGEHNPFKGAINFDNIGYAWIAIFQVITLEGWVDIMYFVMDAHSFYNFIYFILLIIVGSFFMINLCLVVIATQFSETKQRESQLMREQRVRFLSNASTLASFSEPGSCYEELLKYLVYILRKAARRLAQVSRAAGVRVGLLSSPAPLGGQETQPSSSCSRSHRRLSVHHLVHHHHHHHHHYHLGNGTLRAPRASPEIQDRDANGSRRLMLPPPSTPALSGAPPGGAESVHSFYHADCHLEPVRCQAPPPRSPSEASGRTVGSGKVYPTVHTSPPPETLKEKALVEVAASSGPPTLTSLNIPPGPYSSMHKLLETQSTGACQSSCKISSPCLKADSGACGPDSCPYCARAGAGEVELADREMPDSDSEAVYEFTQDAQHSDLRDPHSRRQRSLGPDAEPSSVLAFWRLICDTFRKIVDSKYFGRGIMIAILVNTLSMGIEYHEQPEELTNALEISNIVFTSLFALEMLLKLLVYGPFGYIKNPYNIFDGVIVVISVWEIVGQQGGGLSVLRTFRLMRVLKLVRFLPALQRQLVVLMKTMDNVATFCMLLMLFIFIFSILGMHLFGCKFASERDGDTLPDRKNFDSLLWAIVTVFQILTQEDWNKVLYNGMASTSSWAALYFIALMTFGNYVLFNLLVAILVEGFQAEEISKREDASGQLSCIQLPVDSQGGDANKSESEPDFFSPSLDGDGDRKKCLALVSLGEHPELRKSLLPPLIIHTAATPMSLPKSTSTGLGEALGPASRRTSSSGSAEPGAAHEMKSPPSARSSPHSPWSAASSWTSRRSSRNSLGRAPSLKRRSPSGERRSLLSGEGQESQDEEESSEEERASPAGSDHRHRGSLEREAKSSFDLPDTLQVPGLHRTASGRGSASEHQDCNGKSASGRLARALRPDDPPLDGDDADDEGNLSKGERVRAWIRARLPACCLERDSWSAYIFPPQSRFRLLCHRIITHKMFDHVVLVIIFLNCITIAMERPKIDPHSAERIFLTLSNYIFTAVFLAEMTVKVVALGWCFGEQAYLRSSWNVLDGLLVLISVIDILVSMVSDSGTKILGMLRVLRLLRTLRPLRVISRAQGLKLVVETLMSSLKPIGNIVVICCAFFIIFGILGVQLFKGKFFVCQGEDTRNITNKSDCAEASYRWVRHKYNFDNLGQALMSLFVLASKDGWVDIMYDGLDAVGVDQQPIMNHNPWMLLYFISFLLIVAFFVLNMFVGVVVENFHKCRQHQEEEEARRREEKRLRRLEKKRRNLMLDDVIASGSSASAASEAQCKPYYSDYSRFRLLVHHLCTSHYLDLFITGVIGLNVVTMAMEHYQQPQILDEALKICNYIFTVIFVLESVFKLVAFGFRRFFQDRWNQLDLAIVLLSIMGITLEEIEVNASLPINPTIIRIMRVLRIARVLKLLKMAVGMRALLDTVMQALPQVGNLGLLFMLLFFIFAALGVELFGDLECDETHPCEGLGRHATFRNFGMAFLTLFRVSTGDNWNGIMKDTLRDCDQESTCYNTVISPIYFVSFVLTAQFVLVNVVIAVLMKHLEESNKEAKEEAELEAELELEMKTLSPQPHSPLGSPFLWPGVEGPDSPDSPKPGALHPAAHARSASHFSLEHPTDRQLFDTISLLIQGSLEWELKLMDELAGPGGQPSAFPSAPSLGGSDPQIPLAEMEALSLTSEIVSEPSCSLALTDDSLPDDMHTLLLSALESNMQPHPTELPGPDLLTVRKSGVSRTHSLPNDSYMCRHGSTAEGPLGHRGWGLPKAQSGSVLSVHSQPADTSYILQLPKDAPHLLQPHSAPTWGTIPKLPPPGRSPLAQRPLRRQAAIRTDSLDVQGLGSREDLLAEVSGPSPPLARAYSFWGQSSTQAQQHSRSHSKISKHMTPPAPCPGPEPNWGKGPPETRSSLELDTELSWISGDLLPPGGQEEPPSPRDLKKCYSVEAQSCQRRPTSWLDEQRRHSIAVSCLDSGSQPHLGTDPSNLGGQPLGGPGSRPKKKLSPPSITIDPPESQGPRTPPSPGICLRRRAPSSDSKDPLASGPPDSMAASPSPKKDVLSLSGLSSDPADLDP

T1 sequence (O95180 whole entry): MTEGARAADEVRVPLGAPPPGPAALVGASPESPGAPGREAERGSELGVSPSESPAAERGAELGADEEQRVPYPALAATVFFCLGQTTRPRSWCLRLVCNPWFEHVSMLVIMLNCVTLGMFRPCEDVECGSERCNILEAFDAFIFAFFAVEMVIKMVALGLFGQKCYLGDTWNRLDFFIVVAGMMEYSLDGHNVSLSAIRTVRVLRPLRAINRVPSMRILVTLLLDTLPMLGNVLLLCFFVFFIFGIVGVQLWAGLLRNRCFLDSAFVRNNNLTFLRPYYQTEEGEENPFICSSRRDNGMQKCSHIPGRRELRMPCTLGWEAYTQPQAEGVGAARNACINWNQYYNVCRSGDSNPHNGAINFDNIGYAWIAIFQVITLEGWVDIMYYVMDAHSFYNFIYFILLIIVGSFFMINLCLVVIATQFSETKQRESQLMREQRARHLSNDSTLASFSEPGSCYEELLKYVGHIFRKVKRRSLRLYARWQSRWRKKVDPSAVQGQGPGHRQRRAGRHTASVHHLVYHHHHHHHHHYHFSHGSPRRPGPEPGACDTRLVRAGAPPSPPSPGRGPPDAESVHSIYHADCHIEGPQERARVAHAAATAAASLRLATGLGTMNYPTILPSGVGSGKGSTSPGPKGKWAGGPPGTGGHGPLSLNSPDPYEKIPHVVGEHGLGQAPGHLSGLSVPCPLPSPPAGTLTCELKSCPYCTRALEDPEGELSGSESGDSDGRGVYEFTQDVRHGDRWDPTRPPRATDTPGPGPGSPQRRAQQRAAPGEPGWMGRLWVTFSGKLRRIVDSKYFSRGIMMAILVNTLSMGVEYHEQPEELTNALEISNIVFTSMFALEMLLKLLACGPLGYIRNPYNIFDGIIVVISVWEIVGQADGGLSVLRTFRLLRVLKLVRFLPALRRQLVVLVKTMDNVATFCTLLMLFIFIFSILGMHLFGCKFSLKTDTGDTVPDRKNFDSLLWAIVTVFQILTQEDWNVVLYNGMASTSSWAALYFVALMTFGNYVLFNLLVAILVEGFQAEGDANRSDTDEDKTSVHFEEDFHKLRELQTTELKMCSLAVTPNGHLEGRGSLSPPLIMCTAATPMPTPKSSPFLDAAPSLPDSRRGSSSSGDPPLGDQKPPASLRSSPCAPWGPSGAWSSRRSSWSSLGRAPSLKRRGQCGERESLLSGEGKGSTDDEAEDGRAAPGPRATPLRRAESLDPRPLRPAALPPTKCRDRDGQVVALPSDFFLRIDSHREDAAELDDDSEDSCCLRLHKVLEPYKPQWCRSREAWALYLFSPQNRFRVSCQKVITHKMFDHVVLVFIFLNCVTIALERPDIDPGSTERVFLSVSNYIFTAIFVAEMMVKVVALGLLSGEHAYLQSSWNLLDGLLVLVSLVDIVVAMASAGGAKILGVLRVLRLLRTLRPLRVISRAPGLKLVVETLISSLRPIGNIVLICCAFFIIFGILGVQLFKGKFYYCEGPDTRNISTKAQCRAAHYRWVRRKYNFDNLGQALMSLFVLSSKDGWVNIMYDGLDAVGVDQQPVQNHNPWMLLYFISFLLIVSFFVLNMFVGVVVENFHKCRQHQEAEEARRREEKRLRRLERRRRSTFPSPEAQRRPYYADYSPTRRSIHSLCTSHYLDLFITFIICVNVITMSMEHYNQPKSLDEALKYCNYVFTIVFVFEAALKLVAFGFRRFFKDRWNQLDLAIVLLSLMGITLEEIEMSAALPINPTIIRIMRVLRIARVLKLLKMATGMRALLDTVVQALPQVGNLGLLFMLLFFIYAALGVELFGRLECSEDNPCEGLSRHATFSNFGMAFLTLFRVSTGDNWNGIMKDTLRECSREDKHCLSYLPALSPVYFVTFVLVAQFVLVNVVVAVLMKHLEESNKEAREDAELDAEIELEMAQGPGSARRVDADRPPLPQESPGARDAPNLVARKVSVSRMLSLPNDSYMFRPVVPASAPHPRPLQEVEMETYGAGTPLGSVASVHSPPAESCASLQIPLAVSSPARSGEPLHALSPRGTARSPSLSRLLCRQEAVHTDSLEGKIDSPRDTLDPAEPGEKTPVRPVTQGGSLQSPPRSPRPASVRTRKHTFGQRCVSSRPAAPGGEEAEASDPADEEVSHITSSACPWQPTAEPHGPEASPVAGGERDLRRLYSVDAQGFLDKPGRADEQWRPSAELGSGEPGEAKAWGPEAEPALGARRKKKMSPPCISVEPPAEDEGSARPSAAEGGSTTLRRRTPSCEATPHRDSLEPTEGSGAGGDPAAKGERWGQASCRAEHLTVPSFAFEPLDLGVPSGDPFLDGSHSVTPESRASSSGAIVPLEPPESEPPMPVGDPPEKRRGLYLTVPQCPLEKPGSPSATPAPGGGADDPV

CC(C)(F)C(=O)NCCN1CCC(CNC(=O)c2cc(F)cc(C(F)(F)F)c2)CC1 [Compound 336, 3-fluoro-N-((1-(2-(2-fluoro-2-methylpropanamido)ethyl)piperidin-4-yl)methyl)-5-(trifluoromethyl)benzamide]
IC50 [1]: 1160 nM
IC50 [2]: 1750 nM

CC1(C(=O)NCCN2CCC(CNC(=O)c3cc(C(F)(F)F)cc(C(F)(F)F)c3)CC2)CC1 [Compound 337, N-((1-(2-(1-methylcyclopropanecarboxamido)ethyl)piperidin-4-yl)methyl)-3,5-bis(trifluoromethyl)benzamide]
IC50 [1]: 370 nM
IC50 [2]: 270 nM

CC(C)(C(=O)NCCN1CCC(CNC(=O)c2cc(C(F)(F)F)cc(C(F)(F)F)c2)CC1)C(F)(F)F [Compound 338, N-((1-(2-(3,3,3-trifluoro-2,2-dimethylpropanamido)ethyl)piperidin-4-yl)methyl)-3,5-bis(trifluoromethyl) benzamide]
IC50 [1]: 160 nM
IC50 [2]: < 300 nM

CC(C)(C(=O)NCCN1CCC(CNC(=O)c2cc(F)cc(C(F)(F)F)c2)CC1)C(F)(F)F [Compound 339, 3-fluoro-N-((1-(2-(3,3,3-trifluoro-2,2-dimethylpropanamido)ethyl)piperidin-4-yl)methyl)-5-(trifluoromethyl)benzamide]
IC50 [1]: 130 nM
IC50 [2]: < 300 nM

O=C(NCC1CCN(CCNC(=O)C2(C(F)(F)F)CCCC2)CC1)c1cc(C(F)(F)F)cc(C(F)(F)F)c1 [Compound 340, 3,5-bis(trifluoromethyl)-N-((1-(2-(1-(trifluoromethyl)cyclopentanecarbox-amido)ethyl)piperidin-4-yl)methyl) benzamide]
IC50 [1]: 120 nM
IC50 [2]: < 300 nM

O=C(NCC1CCN(CCNC(=O)C2(C(F)(F)F)CCCC2)CC1)c1cc(F)cc(C(F)(F)F)c1 [Compound 341, 3-fluoro-5-(trifluoromethyl)-N-((1-(2-(1-(trifluoromethyl)cyclopentanecarbox-amido)ethyl)piperidin-4-yl)methyl) benzamide]
IC50 [1]: 120 nM
IC50 [2]: < 300 nM

O=C(NCC1CCN(CCNC(=O)C2(C(F)(F)F)CC2)CC1)c1cc(C(F)(F)F)cc(C(F)(F)F)c1 [Compound 342, 3,5-bis(trifluoromethyl)-N-((1-(2-(1-(trifluoromethyl)cyclopropanecarbox-amido)ethyl)piperidin-4-yl)methyl) benzamide]
IC50 [1]: 70 nM
IC50 [2]: < 300 nM

CCCNC(=O)CN1CCC(CNC(=O)c2cc(C(F)(F)F)cc(C(F)(F)F)c2)CC1 [Compound 345, N-((1-(2-oxo-2-(propylamino)ethyl)piperidin-4-yl)methyl)-3,5-bis(trifluoromethyl)benzamide]
IC50 [1]: 110 nM
IC50 [2]: < 300 nM

CCC(C)(C)NC(=O)CN1CCC(CNC(=O)c2cc(C(F)(F)F)cc(C(F)(F)F)c2)CC1 [Compound 346, N-((1-(2-oxo-2-(tert-pentylamino)ethyl)piperidin-4-yl)methyl)-3,5-bis(trifluoromethyl) benzamide]
IC50 [1]: 50 nM
IC50 [2]: < 300 nM

COCC(COC)NC(=O)CN1CCC(CNC(=O)c2cc(C(F)(F)F)cc(C(F)(F)F)c2)CC1 [Compound 347, N-((1-(2-(1,3-dimethoxypropan-2-ylamino)-2-oxoethyl)piperidin-4-yl)methyl)-3,5-bis(trifluoromethyl) benzamide]
IC50 [1]: 240 nM
IC50 [2]: < 300 nM

O=C(NCC1CCN(CC(=O)N2CC[C@H](C(F)(F)F)C2)CC1)c1cc(C(F)(F)F)cc(C(F)(F)F)c1 [Compound 348, (S)-N-((1-(2-oxo-2-(3-(trifluoromethyl)pyrrolidin-1-yl)ethyl)piperidin-4-yl)methyl)-3,5-bis(trifluoromethyl)benzamide]
IC50 [1]: 110 nM
IC50 [2]: < 300 nM

O=C(NCC1CCN(CC(=O)N2CCC(F)CC2)CC1)c1cc(C(F)(F)F)cc(C(F)(F)F)c1 [Compound 349, N-((1-(2-(4-fluoropiperidin-1-yl)-2-oxoethyl)piperidin-4-yl)methyl)-3,5-bis(trifluoromethyl)benzamide]
IC50 [1]: 300 nM
IC50 [2]: < 300 nM

CC(C)NC(=O)CN1CCC(CNC(=O)c2cc(F)cc(C(F)(F)F)c2)CC1 [Compound 350, 3-fluoro-N-((1-(2-(isopropylamino)-2-oxoethyl)piperidin-4-yl)methyl)-5-(trifluoromethyl)benzamide]
IC50 [1]: 750 nM
IC50 [2]: 910 nM

CCCNC(=O)CN1CCC(CNC(=O)c2cc(F)cc(C(F)(F)F)c2)CC1 [Compound 351, 3-fluoro-N-((1-(2-oxo-2-(propylamino)ethyl)piperidin-4-yl)methyl)-5-(trifluoromethyl)benzamide]
IC50 [1]: 1300 nM
IC50 [2]: 1720 nM

CC1(NC(=O)CN2CCC(CNC(=O)c3cc(F)cc(C(F)(F)F)c3)CC2)CCC1 [Compound 352, 3-fluoro-N-((1-(2-(1-methylcyclo-butylamino)-2-oxoethyl)piperidin-4-yl)methyl)-5-(trifluoromethyl) benzamide]
IC50 [1]: 80 nM
IC50 [2]: < 300 nM

CCC(C)(C)NC(=O)CN1CCC(CNC(=O)c2cc(F)cc(C(F)(F)F)c2)CC1 [Compound 353, 3-fluoro-N-((1-(2-oxo-2-(tert-pentylamino)ethyl)piperidin-4-yl)methyl)-5-(trifluoromethyl)benzamide]
IC50 [1]: 60 nM
IC50 [2]: < 300 nM

COCC(COC)NC(=O)CN1CCC(CNC(=O)c2cc(F)cc(C(F)(F)F)c2)CC1 [Compound 354, N-((1-(2-(1,3-dimethoxypropan-2-ylamino)-2-oxoethyl)piperidin-4-yl)methyl)-3-fluoro-5-(trifluoromethyl) benzamide]
IC50 [1]: 2140 nM
IC50 [2]: 1840 nM

O=C(NCC1CCN(CC(=O)N2CC[C@H](C(F)(F)F)C2)CC1)c1cc(F)cc(C(F)(F)F)c1 [Compound 355, (S)-3-fluoro-N-((1-(2-oxo-2-(3-(trifluoromethyl)pyrrolidin-1-yl)ethyl)piperidin-4-yl)methyl)-5-(trifluoromethyl)benzamide]
IC50 [1]: 160 nM
IC50 [2]: < 300 nM

O=C(NCC1CCN(CC(=O)N2CCC(F)CC2)CC1)c1cc(F)cc(C(F)(F)F)c1 [Compound 356, 3-fluoro-N-((1-(2-(4-fluoropiperidin-1-yl)-2-oxoethyl)piperidin-4-yl)methyl)-5-(trifluoromethyl)benzamide]
IC50 [1]: 830 nM
IC50 [2]: 550 nM

CS(=O)(=O)NC1(CN2CCC(CNC(=O)c3cc(C(F)(F)F)cc(C(F)(F)F)c3)CC2)CC1 [Compound 357, N-((1-((1-(methylsulfonamido)cyclopropyl)methyl)piperidin-4-yl)methyl)-3,5-bis(trifluoromethyl)benzamide]
IC50 [1]: 1270 nM
IC50 [2]: 2150 nM

CCS(=O)(=O)NC1(CN2CCC(CNC(=O)c3cc(C(F)(F)F)cc(C(F)(F)F)c3)CC2)CC1 [Compound 358, N-((1-((1-(ethylsulfonamido)cyclopropyl)methyl)piperidin-4-yl)methyl)-3,5-bis(trifluoromethyl)benzamide]
IC50 [1]: 530 nM
IC50 [2]: 520 nM

O=C(NCC1CCN(CC2(NS(=O)(=O)C3CC3)CC2)CC1)c1cc(C(F)(F)F)cc(C(F)(F)F)c1 [Compound 359, N-((1-((1-(cyclopropanesulfonamido)cyclopropyl)methyl)piperidin-4-yl)methyl)-3,5-bis(trifluoromethyl)benzamide]
IC50 [1]: 490 nM
IC50 [2]: 380 nM

O=C(NCC1CCN(CC2(NS(=O)(=O)CCC(F)(F)F)CC2)CC1)c1cc(C(F)(F)F)cc(C(F)(F)F)c1 [Compound 360, 3,5-bis(trifluoromethyl)-N-((1-((1-(3,3,3-trifluoropropylsulfonylamido)cyclopropyl)methyl)piperidin-4-yl)methyl)benzamide]
IC50 [1]: 250 nM
IC50 [2]: < 300 nM

CC(C)(C)C(=O)NC1(CN2CCC(CNC(=O)c3cc(C(F)(F)F)cc(C(F)(F)F)c3)CC2)CC1 [Compound 361, N-((1-((1-pivalamidocyclopropyl)methyl)piperidin-4-yl)methyl)-3,5-bis(trifluoromethyl)benzamide]
IC50 [1]: 600 nM
IC50 [2]: 700 nM

CC(C)(C)NC(=O)CN1CCC(CNC(=O)/C=C/c2cc(F)cc(F)c2)CC1 [Compound 369, (E)-N-((1-(2-(tert-butylamino)-2-oxoethyl)piperidin-4-yl)methyl)-3-(3,5-difluorophenyl)acrylamide]
IC50 [1]: 7010 nM
IC50 [2]: 6910 nM

CC(C)(C)NC(=O)CN1CCC(CNC(=O)c2cc(C(F)(F)F)ccn2)CC1 [Compound 372, N-((1-(2-(tert-butylamino)-2-oxoethyl)piperidin-4-yl)methyl)-4-(trifluoromethyl)picolinamide]
IC50 [1]: > 10000 nM
IC50 [2]: > 10000 nM

CC(C)(C)NC(=O)CN1CCC(CNC(=O)c2ccnc(N3CCCC3)c2)CC1 [Compound 373, N-((1-(2-(tert-butylamino)-2-oxoethyl)piperidin-4-yl)methyl)-2-(pyrrolidin-1-yl)isonicotinamide]
IC50 [1]: > 10000 nM
IC50 [2]: > 10000 nM

CCOc1cc(OCC)cc(C(=O)NCC2CCN(CC(=O)NC(C)(C)C)CC2)c1 [Compound 377, N-((1-(2-(tert-butylamino)-2-oxoethyl)piperidin-4-yl)methyl)-3,5-diethoxybenzamide]
IC50 [1]: 450 nM
IC50 [2]: < 300 nM

CC(C)(C)NC(=O)CN1CCC(CNC(=O)/C=C/c2cc(Cl)cc(Cl)c2)CC1 [Compound 378, (E)-N-((1-(2-(tert-butylamino)-2-oxoethyl)piperidin-4-yl)methyl)-3-(3,5-dichlorophenyl)acrylamide]
IC50 [1]: 1440 nM
IC50 [2]: 1600 nM

COc1cc(C(=O)NCC2CCN(CC(=O)NC(C)(C)C)CC2)cc(C(F)(F)F)c1 [Compound 379, N-((1-(2-(tert-buylamino)-2-oxoethyl)piperidin-4-yl)methyl)-3-methoxy-5-(trifluoromethyl)benzamide]
IC50 [1]: 130 nM
IC50 [2]: < 300 nM

CC(C)(C)NC(=O)CN1CCC(CNC(=O)c2cc(Cl)cc(C(F)(F)F)c2)CC1 [Compound 380, N-((1-(2-(tert-butylamino)-2-oxoethyl)piperidin-4-yl)methyl)-3-chloro-5-(trifluoromethyl)benzamide]
IC50 [1]: 110 nM
IC50 [2]: < 300 nM
